Patent US10646489B2, “Compositions and methods for increasing energy metabolism” (NuSirt Sciences, Inc., priority 2012, dated 2020)

Assays:
Assay type in all cases: cell-based
[1] = test system: C2C12 myotubes; test: Glucose utilization (extracellular acidification response to glucose injection) in C2C12 myotubes / muscle cells; settings: C2C12 myotubes; leucine alone
Protocol: Glucose utilization was measured as extracellular acidification response to glucose injection. *p=0.04. […] Treatment with 0.5 mM leucine corresponds to a circulating level of the same molarity achieved by administering about 1,125 mg of dietary leucine to a human subject. Treatment with 0.25 mM leucine corresponds to a circulating level of the same molarity achieved by administering about 300 mg of dietary leucine to a human subject.

[2] = test system: 3T3-L1 adipocytes; test: Fatty acid oxidation in 3T3-L1 adipocytes / adipocytes; settings: 3T3-L1 adipocytes; leucine 0.5 mM or HMB 5 μM alone; p<0.05
Source text: (§1) Data expressed as % change from control value.*p<0.05. The output of the pathways can be measured using one or more methods, disclosed herein and/or known in the art. […] Mitochondrial biogenesis can be measured using a mitochondrial probe by using fluorescence. AMPK activity can be determined by measuring AMPK phosphorylation via an ELISA assay or by Western blot. Sirt1 activity can be determined by measuring deacetylation of a substrate, which can be detected using a fluorophore. […] Treatment with 0.5 mM leucine corresponds to a circulating level of the same molarity achieved by administering about 1,125 mg of dietary leucine to a human subject. Treatment with 0.25 mM leucine corresponds to a circulating level of the same molarity achieved by administering about 300 mg of dietary leucine to a human subject.

[3] = test system: C2C12 myotubes; test: Mitochondrial biogenesis measured as mitochondrial mass in C2C12 myotubes; settings: C2C12 cells treated with leucine alone; p<0.05
Protocol: as §1, with “The” for “Data expressed as % change from control value.*p<0.05. The”

leucine
glucose utilization, agent alone [1]: 9.3%
fatty acid oxidation, agent alone [2]: 27%
mitochondrial biomass [3]: 22.05+/−0.4 AFU/μg protein
